From ChEMBL document CHEMBL6103674, “Xiapyrroles A-F: N-Alkylpyrrole Alkaloids from the Marine-Derived Actinomycete Streptomyces xiamenensis 1310KO-148” (J Nat Prod, 2025) come the findings set out here.

Activity calls are given as the source filed them. The calls are words filed in the database; no cut-off is given here.

As usually defined, the IC50 is the concentration that inhibits the measured activity by half.

The test system of data set [1] is RAW264.7. Briefly: Cytotoxicity against LPS-induced mouse RAW264.7 cells assessed as reduction in cell viability at 30 uM measured after 24 hrs by XTT assay. The format is toxicity, cell-based. Conditions: raw264.7, 24 h. On the technique in general: Tetrazolium dyes change colour on reduction, which living cells bring about.
The next data set deals with PC-3. Nature of the data set: Cytotoxicity against human PC-3 cells at 30 uM. The format is functional, cell-based.
In data set [2] the test system is RAW264.7. Briefly: Anti-inflammatory activity against mouse RAW264.7 cells assessed as inhibition of LPS-induced iNOS mRNA level pretreated for 1 hr followed by induced with LPS measured after 6 hrs by quantitative RT-PCR analysis. It is filed as functional, cell-based. The following applies: dose 1-30 µM, time 7.0 hrs.
The subject of the next data set is K562. Briefly: Cytotoxicity against human K562 cells at 30 uM. The format is functional, cell-based.
The test system of data set [3] is RAW264.7. Nature of the data set: Anti-inflammatory activity against mouse RAW264.7 cells assessed as inhibition of LPS-induced IL-6 mRNA level pretreated for 1 hr followed by induced with LPS measured after 6 hrs by quantitative RT-PCR analysis. The format is functional, cell-based. The following applies: dose 1-30 µM, time 7.0 hrs.
The next data set has as its system NALM-6. Nature of the data set: Cytotoxicity against human NALM-6 cells at 30 uM. It is filed as functional, cell-based.
The test system of another data set is WSUDLCL2. Briefly: Cytotoxicity against human WSUDLCL2 cells at 30 uM. It is filed as functional, cell-based.
Data set [4] deals with RAW264.7. Nature of the data set: Anti-inflammatory activity in LPS-induced mouse RAW264.7 cells assessed as suppression of IL-6 level pretreated for 1 hr followed by LPS addition and measured after 24 hrs by ELISA method. The format is functional, cell-based. For orientation: ELISA stands for enzyme-linked immunosorbent assay.
Another data set has as its system ACHN. Nature of the data set: Cytotoxicity against human ACHN cells at 30 uM. The format is functional, cell-based.
For a further data set, the system named is NUGC-3. Briefly: Cytotoxicity against human NUGC-3 cells at 30 uM. It is filed as functional, cell-based.
The test system of a further data set is NCI-H23. Briefly: Cytotoxicity against human NCI-H23 cells at 30 uM. The format is functional, cell-based.
The next data set concerns U-266. Nature of the data set: Cytotoxicity against human U-266 cells at 30 uM. It is filed as functional, cell-based.
For the next data set, the system named is Raji. Briefly: Cytotoxicity against human Raji cells at 30 uM. It is filed as functional, cell-based.
In another data set the test system is MDA-MB-231. Nature of the data set: Cytotoxicity against human MDA-MB-231 cells at 30 uM. The format is functional, cell-based.
A further data set relates to HL-60. Briefly: Cytotoxicity against human HL-60 cells at 30 uM. The format is functional, cell-based.
For a further data set, the system named is RPMI-1788. Nature of the data set: Cytotoxicity against human RPMI-1788 cells at 30 uM. It is filed as functional, cell-based.
The test system of data set [5] is RAW264.7. Nature of the data set: Anti-inflammatory activity in LPS-induced mouse RAW264.7 cells assessed as suppression of NO production at 30 uM pretreated for 1 hr followed by LPS addition and measured after 24 hrs by Griess reagent based assay. The following applies: time 25.0 hrs. It is filed as functional, cell-based. In general terms: Griess reagent forms a coloured azo dye with nitrite.

A further data set has as its system HCT-15. Nature of the data set: Cytotoxicity against human HCT-15 cells at 30 uM. It is filed as functional, cell-based.
For another data set, the system named is RPMI 8402. Briefly: Cytotoxicity against human RPMI 8402 cells at 30 uM. It is filed as functional, cell-based.
Data set [6] deals with RAW264.7. Nature of the data set: Anti-inflammatory activity in LPS-induced mouse RAW264.7 cells assessed as suppression of NO production pretreated for 1 hr followed by LPS addition and measured after 24 hrs by Griess reagent based assay. It is filed as functional, cell-based.

For the compound `CC1=C[C@@](C)(O)N(CCc2ccc(O)cc2)C1=O`, the Activity entry in the data set on RAW264.7 [1] was “Non-toxic”.
On the same count and under the same terms, next, `CO[C@@]1(C)C=C(C)C(=O)N1CCc1ccc(O)cc1`: “Non-toxic”.
With `CO[C@@]1(C)C=C(C)C(=O)N1CC(=O)c1ccccc1`, the Activity result in the data set with RAW264.7 [1] is on record as “Non-toxic”.
Still for that read-out and setting: with `CC(=O)N(O)CCCn1c(C)cc(C)c1C(=O)[C@@H](O)CO` the entry was “Non-toxic”; with `Cc1cc(C)n(CCc2ccc(O)cc2)c1C=O`, “Non-toxic”.
Regarding `C=C1C=C(C)C(=O)N1CCc1ccc(O)cc1`, the result with PC-3, in the data set with K562, with NALM-6, in the data set with WSUDLCL2, in the data set on ACHN and in the data set on NUGC-3 was inactive. Moreover, the result in the data set on NCI-H23, with U-266, in the data set with Raji, in the data set on MDA-MB-231, with HL-60 and with RPMI-1788 was inactive. For the same compound, the result with HCT-15 and in the data set on RPMI 8402 was inactive. Also, the inhibition entry with RAW264.7 [2] and with RAW264.7 [3] was “Dose-dependent-effect” each time. Further, the half-inhibitory concentration (IC50) with RAW264.7 [4] came out at 10.9 µM; in the data set on RAW264.7 [6], 29.5 µM. In addition, the Activity entry in the data set with RAW264.7 [4] (time 25.0 hrs) is “Dose-dependent-effect”; in the data set with RAW264.7 [1], “Non-toxic”; in the data set on RAW264.7 [6] (time 25.0 hrs) it was “Dose-dependent-effect”. Further, the outcome with RAW264.7 [5] was Active.
